Laboratory results as given in patent US11339171B2, “MDM2 inhibitors” (Gan & Lee Pharmaceuticals, priority 2017, dated 2022).
Where “and” joins values, the source holds several entries; their conditions need not be identical. Equal entries are not always repeated. Where two headings read alike, the source gives them in different places.

Experiments:
[1] = Pharmacokinetics in ICR mice after intravenous and intragastric administration; type: in vivo; details: for F*: PO 5 mg/kg vs IV 2 mg/kg, mean; for MRT last: read-out: MRT(0-t); for MRT inf: read-out: MRT(0-∞); for Vd: read-out: Vz
Outline: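 Male ICR mice (6-9 weeks, 20-30 g, n=3 per route) were fasted overnight and dosed at 2 mg/kg i.v. or 5 mg/kg intragastrically in 5% DMSO/40% PEG400/55% (10% HP-β-CD in saline). Plasma levels were measured by LC-MS/MS after protein precipitation (LLOQ 1 ng/mL), and non-compartmental PK parameters were calculated.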

[2] = target: T1, MDM2 (Homo sapiens, UniProt Q00987); test: Inhibition test of MDM2-P53 (GST-MDM2, Biotin-P53, Anti-GST-Tb, SA-XL665); type: binding
T1 construct: made in house
T1 sequence (Q00987 whole entry): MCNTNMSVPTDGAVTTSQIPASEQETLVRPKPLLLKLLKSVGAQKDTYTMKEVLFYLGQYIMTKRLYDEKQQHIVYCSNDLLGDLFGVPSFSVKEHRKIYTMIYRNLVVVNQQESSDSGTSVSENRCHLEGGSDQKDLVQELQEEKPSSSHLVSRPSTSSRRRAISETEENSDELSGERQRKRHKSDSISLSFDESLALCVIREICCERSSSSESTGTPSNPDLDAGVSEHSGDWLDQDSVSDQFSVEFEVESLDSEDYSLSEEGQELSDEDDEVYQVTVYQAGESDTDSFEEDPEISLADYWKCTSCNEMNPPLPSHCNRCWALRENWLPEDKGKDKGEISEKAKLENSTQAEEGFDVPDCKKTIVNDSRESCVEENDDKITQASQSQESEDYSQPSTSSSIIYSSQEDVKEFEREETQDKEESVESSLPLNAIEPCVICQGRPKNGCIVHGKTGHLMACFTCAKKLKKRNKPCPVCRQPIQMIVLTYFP
Outline: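 Binding was measured by TR-FRET with GST-MDM2 at 4 nM final in PBS with 0.1% BSA, 5 mM DTT and 1 mM AEBSF. Compounds were tested as twelve-point 5-fold dilutions and incubated with the detection mix for 90 min at 25 °C with shaking before plate-reader reading and curve fitting.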

[3] = test system: human osteosarcoma cell line SJSA-1; test: Inhibition of proliferation of human osteosarcoma cell line SJSA-1 (DAPI staining, In Cell Analyzer); details: Homo sapiens, SJSA-1, 72 h, read-out: IC50 (nM), inhibitory activity on proliferation of human osteosarcoma cell line SJSA-1, SJSA-1, incubated 72 h
[4] = ICR mice, IV 2 mg/kg, individual animals 301-303, 2 mg/kg
[5] = ICR mice, PO 5 mg/kg, individual animals 401-403, 5 mg/kg
[6] = male, ICR, mouse, plasma, iv, 2 mg/kg, ICR mice, IV 2 mg/kg, individual animals 301-303
[7] = male, ICR, mouse, plasma, iv, 2 mg/kg, ICR mice, IV 2 mg/kg, individual animals 301-303, read-out: AUC(0-t)
[8] = male, ICR, mouse, plasma, iv, 2 mg/kg, ICR mice, IV 2 mg/kg, individual animals 301-303, read-out: Cmax
[9] = male, ICR, mouse, plasma, iv, 2 mg/kg, ICR mice, IV 2 mg/kg, individual animals 301-303, read-out: t1/2 (converted)
[10] = male, ICR, mouse, plasma, iv, 2 mg/kg, ICR mice, IV 2 mg/kg, mean of 3 animals
[11] = male, ICR, mouse, plasma, iv, 2 mg/kg, ICR mice, IV 2 mg/kg, mean of 3 animals, read-out: AUC(0-t)
[12] = male, ICR, mouse, plasma, iv, 2 mg/kg, ICR mice, IV 2 mg/kg, mean of 3 animals, read-out: Cmax
[13] = male, ICR, mouse, plasma, iv, 2 mg/kg, ICR mice, IV 2 mg/kg, mean of 3 animals, read-out: Tmax
[14] = male, ICR, mouse, plasma, iv, 2 mg/kg, ICR mice, IV 2 mg/kg, mean of 3 animals, read-out: t1/2 (converted)
[15] = male, ICR, mouse, plasma, po, 5 mg/kg, ICR mice, PO 5 mg/kg, individual animals 401-403
[16] = male, ICR, mouse, plasma, po, 5 mg/kg, ICR mice, PO 5 mg/kg, individual animals 401-403, read-out: AUC(0-t)
[17] = male, ICR, mouse, plasma, po, 5 mg/kg, ICR mice, PO 5 mg/kg, individual animals 401-403, read-out: Tmax
[18] = male, ICR, mouse, plasma, po, 5 mg/kg, ICR mice, PO 5 mg/kg, individual animals 401-403, read-out: t1/2 (converted)
[19] = male, ICR, mouse, plasma, po, 5 mg/kg, ICR mice, PO 5 mg/kg, mean of 3 animals
[20] = male, ICR, mouse, plasma, po, 5 mg/kg, ICR mice, PO 5 mg/kg, mean of 3 animals, read-out: AUC(0-t)
[21] = male, ICR, mouse, plasma, po, 5 mg/kg, ICR mice, PO 5 mg/kg, mean of 3 animals, read-out: Cmax
[22] = male, ICR, mouse, plasma, po, 5 mg/kg, ICR mice, PO 5 mg/kg, mean of 3 animals, read-out: Tmax
[23] = male, ICR, mouse, plasma, po, 5 mg/kg, ICR mice, PO 5 mg/kg, mean of 3 animals, read-out: t1/2 (converted)
[24] = male, ICR, mouse, plasma, po, 5 mg/kg, oral intragastric administration 5 mg/kg, read-out: AUC0-t
[25] = male, ICR, mouse, plasma, po, 5 mg/kg, oral intragastric administration 5 mg/kg, read-out: half-life (converted)

Structure (SMILES): COc1cc(OC(C)C)ncc1-c1nc2c(n1C(C)C)[C@@]1(C(=O)Nc3cc(Cl)ccc31)N(c1cc(Cl)cnc1C)C2=O [Example S-137, (S)-6-chloro-5′-(5-chloro-2-methylpyridin-3-yl)-2′-(6-isopropoxy-4-methoxypyridin-3-yl)-3′-isopropyl-3′H-spiro[dihydroindole-3,4′-pyrrolo[3,4-d]imidazole]-2,6′(5′H)-dione]
- AUC(0-t) [1, 4]: 15555.08 ng·h/mL and 10168.14 ng·h/mL
- AUC(0-∞) [1, 4]: 15581.80 ng·h/mL and 10938.18 ng·h/mL
- CL [1, 4]: 2.14 mL/min/kg and 3.05 mL/min/kg
- Cmax [1, 4]: 5945.51 ng/mL and 5653.28 ng/mL
- MRT(0-t) [1, 4]: 2.84 h and 1.50 h
- MRT(0-∞) [1, 4]: 2.88 h and 1.97 h
- Vz [1, 4]: 0.52 L/kg and 0.41 L/kg
- t1/2 [1, 4]: 2.79 h and 1.57 h
- F* ([1]; ICR mice): 53.35%
- AUC(0-t) [1, 5]: 16097.34 ng·h/mL and 14779.57 ng·h/mL
- AUC(0-∞) [1, 5]: 17159.38 ng·h/mL and 15367.65 ng·h/mL
- Cmax [1, 5]: 5542.83 ng/mL and 6791.01 ng/mL
- MRT(0-t) [1, 5]: 2.31 h and 2.03 h
- MRT(0-∞) [1, 5]: 2.84 h and 2.35 h
- t1/2 [1, 5]: 1.98 h and 1.69 h
- AUC(0-inf) [1, 6]: 9740 ng·h/mL
- clearance [1, 6]: 3.42 mL/min/kg
- AUC(0-t) [1, 7]: 8960 ng·h/mL
- Cmax [1, 8]: 5260 ng/mL
- MRT last [1, 6]: 1.51 h
- MRT inf [1, 6]: 2.06 h
- Tmax ([1]; male, ICR, mouse, plasma, iv, 2 mg/kg, ICR mice, IV 2 mg/kg, individual animals 301-303, read-out: Tmax): 0.08 h
- Vd [1, 6]: 0.5 L/kg
- half-life [1, 9]: 1.68 h
- AUC(0-inf) [1, 10]: 12100 ng·h/mL
- clearance [1, 10]: 2.87 mL/min/kg
- AUC(0-t) [1, 11]: 11600 ng·h/mL
- Cmax [1, 12]: 5620 ng/mL
- MRT last [1, 10]: 1.95 h
- MRT inf [1, 10]: 2.3 h
- Tmax [1, 13]: 0.083 h
- Vd [1, 10]: 0.48 L/kg
- half-life [1, 14]: 2.01 h
- AUC(0-inf) [1, 15]: 16200 ng·h/mL
- AUC(0-t) [1, 16]: 15400 ng·h/mL
- Cmax ([1]; male, ICR, mouse, plasma, po, 5 mg/kg, ICR mice, PO 5 mg/kg, individual animals 401-403, read-out: Cmax): 5880 ng/mL
- MRT last [1, 15]: 2.28 h
- MRT inf [1, 15]: 2.7 h
- Tmax [1, 17]: 0.5 h
- half-life [1, 18]: 1.85 h
- AUC(0-inf) [1, 19]: 16200 ng·h/mL
- AUC(0-t) [1, 20]: 15400 ng·h/mL
- Cmax [1, 21]: 6070 ng/mL
- MRT last [1, 19]: 2.21 h
- MRT inf [1, 19]: 2.63 h
- Tmax [1, 22]: 0.5 h
- half-life [1, 23]: 1.84 h
- AUC(0-t) [1, 24]: 15400 ng·h/mL
- half-life [1, 25]: 1.84 h
- IC50 [2]: 1.65 nM
- IC50 [3]: 65.9 nM

Structure (SMILES): CCOc1ncc(-c2nc3c(n2C(C)C)[C@@]2(C(=O)Nc4cc(Cl)ccc42)N(c2cc(Cl)cnc2C)C3=O)c(OC)n1 [Example S-134, (S)-6-chloro-5′-(5-chloro-2-methylpyridin-3-yl)-2′-(2-ethoxy-4-methoxypyrimidin-5-yl)-3′-isopropyl-3′H-spiro[dihydroindole-3,4′-pyrrolo[3,4-d]imidazole]-2,6′(5′H)-dione]
- AUC(0-t) [1, 4]: 7289.25 ng·h/mL and 6534.27 ng·h/mL
- AUC(0-∞) [1, 4]: 7419.12 ng·h/mL and 6880.52 ng·h/mL
- CL [1, 4]: 4.49 mL/min/kg and 4.84 mL/min/kg
- Cmax [1, 4]: 4224.01 ng/mL and 3408.57 ng/mL
- MRT(0-t) [1, 4]: 1.28 h and 1.50 h
- MRT(0-∞) [1, 4]: 1.39 h and 1.83 h
- Tmax [1, 4]: 0.08 h and 0.25 h
- Vz [1, 4]: 0.42 L/kg and 0.61 L/kg
- t1/2 [1, 4]: 1.07 h and 1.47 h
- F* ([1]; ICR mice): 47.70%
- AUC(0-t) [1, 5]: 7889.97 ng·h/mL and 4859.23 ng·h/mL
- AUC(0-∞) [1, 5]: 8123.13 ng·h/mL and 4978.41 ng·h/mL
- Cmax [1, 5]: 3905.15 ng/mL and 3059.53 ng/mL and 1591.65 ng/mL
- MRT(0-t) [1, 5]: 2.21 h
- MRT(0-∞) [1, 5]: 2.28 h and 2.40 h
- Tmax [1, 5]: 0.25 h
- t1/2 [1, 5]: 1.54 h and 1.43 h
- AUC(0-inf) [1, 6]: 5060 ng·h/mL
- clearance [1, 6]: 6.59 mL/min/kg
- AUC(0-t) [1, 7]: 5020 ng·h/mL
- Cmax [1, 8]: 3520 ng/mL
- MRT last [1, 6]: 1.17 h
- MRT inf [1, 6]: 1.23 h
- Vd [1, 6]: 0.53 L/kg
- half-life [1, 9]: 0.93 h
- AUC(0-inf) [1, 10]: 6450 ng·h/mL
- clearance [1, 10]: 5.31 mL/min/kg
- AUC(0-t) [1, 11]: 6280 ng·h/mL
- Cmax [1, 12]: 3720 ng/mL
- MRT last [1, 10]: 1.32 h
- MRT inf [1, 10]: 1.48 h
- Tmax [1, 13]: 0.14 h
- Vd [1, 10]: 0.52 L/kg
- half-life [1, 14]: 1.15 h
- AUC(0-inf) [1, 15]: 9930 ng·h/mL
- AUC(0-t) [1, 16]: 9720 ng·h/mL
- MRT last [1, 15]: 2.04 h
- MRT inf [1, 15]: 2.21 h
- Tmax [1, 17]: 0.5 h
- half-life [1, 18]: 1.38 h
- AUC(0-inf) [1, 19]: 7680 ng·h/mL
- AUC(0-t) [1, 20]: 7490 ng·h/mL
- Cmax [1, 21]: 2850 ng/mL
- MRT last [1, 19]: 2.1 h
- MRT inf [1, 19]: 2.29 h
- Tmax [1, 22]: 0.42 h
- half-life [1, 23]: 1.45 h
- AUC(0-t) [1, 24]: 7490 ng·h/mL
- half-life [1, 25]: 1.45 h
- IC50 [2]: 2.6 nM
- IC50 [3]: 82.2 nM
